Measured values taken from publication PMC9321663, “The DevTox Germ Layer Reporter Platform: An Assay Adaptation of the Human Pluripotent Stem Cell Test” (Toxics, 2022).
Read-outs that look alike come from different tables or passages of the source.

Legend:
[1] = test system: SOX17 (endoderm marker) in RUES2-GLR cells; experiment: DevTox GLR-Endo assay: decrease in percent SOX17-positive cells (AEID 3094, Sox17_dn); conditions: for Emax / AC50: Homo sapiens; for DevTox-GLR Endo ACC: activity concentration at cutoff, SOX17-positive cells
Procedure: (§1) The total test chemical incubation period was 48 h.
(§2) Assay plate controls included non-differentiated pluripotent cells maintained in complete Essential 8 Flex medium (baseline control), endoderm differentiated cells (differentiation control), endoderm differentiated cells treated with DMSO (0.2%) (solvent control), and TGF-ß receptor inhibitor SB431542 (1 µM)-treated cells (developmental toxicant-positive control) (Figure S3). All experiments were completed with a minimum of four biological replicates (n = 4).
(§3) (Supplementary Materials).

[2] = test system: RUES2-GLR cells; experiment: DevTox GLR-Endo assay: decrease in total cell count, cytotoxicity (AEID 3098, CellCount_dn); conditions: for Emax: Homo sapiens, read-out: Cell Count % Max Inhibition
Procedure: as §1, §2, §3

[3] = test system: SOX17 (endoderm marker) in RUES2-GLR cells; experiment: DevTox GLR-Endo assay: increase in percent SOX17-positive cells (AEID 3093, Sox17_up); assay type: cell-based, human; conditions: for Emax: Homo sapiens
Procedure: as §1, §3

[4] = test system: BRA (mesoderm marker) in RUES2-GLR cells; experiment: DevTox GLR-Endo assay: increase in percent BRA-positive cells (AEID 3096, Bra_up); assay type: cell-based, human; design: tp (winning model): unit not given here; conditions: for ga (winning model): tcpl plot AEID3096, gain parameter of winning curve fit (log concentration, µM axis); for ga (winning model) / tp (winning model): hit calls only; for tp (winning model): tcpl plot AEID3096, top of winning curve fit
Procedure: as §1, §3

[5] = test system: SOX2 (ectoderm and pluripotency marker) in RUES2-GLR cells; experiment: DevTox GLR-Endo assay: increase in percent SOX2-positive cells (AEID 3095, Sox2_up); conditions: for AC50 / Emax: Homo sapiens; for AC50: read-out: ga (winning model); for Emax: read-out: tp (winning model);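 for all read-outs here: cells exposed to test chemicals for 48 h in total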
[6] = cited from earlier work; for Development Toxicant Classification: Table S2; for Classification: developmental toxicant classification (Teratogen / Non-Teratogen) of reference and training chemicals, ref DOI per chemical: 10.1093/toxsci/kft239, 10.1093/toxsci/kfaa014, 10.1177/026119290203000204, 10.1038/s41598-020-59542-x; for DT Class.: developmental toxicant classification, chemicals common with quickPredict
[7] = read-out: DevTox % Max Inhibition
[8] = Table S2, SOX17-positive cells, cutoff 3*bmad
[9] = Table S2, percent SOX17-positive cells, 48 h exposure
[10] = tcpl plot AEID3093, maximum mean response, read-out: MAX_MEAN
[11] = tcpl plot AEID3093, maximum median response, read-out: MAX_MED
[12] = tcpl plot AEID3096, maximum mean response
[13] = tcpl plot AEID3096, maximum median response
[14] = tcpl plot AEID3095, maximum mean response
[15] = tcpl plot AEID3095, maximum median response
[16] = DevTox GLR-Endo prediction against developmental toxicant classification
[17] = read-out: maximum observed effect level class (% max inhibition)
[18] = Table S2, percent SOX17-positive cells relative to DMSO
[19] = tcpl plot AEID3094, maximum mean response
[20] = tcpl plot AEID3094, maximum median response
[21] = Table S2, cell count relative to DMSO
[22] = tcpl plot AEID3093, maximum mean response
[23] = tcpl plot AEID3093, maximum median response

| Compound | HIT−CALL [5] | Emax [1, 7] [%] | Emax ([1]; read-out: MAX_MEAN) [%] | Emax ([1]; read-out: MAX_MED) [%] | Hit Call [1, 8] | DevTox ACC [1, 9] [µM] | HIT−CALL ([1]; tcpl plot AEID3094, COFF 20.3) | Emax [2] [%] | Emax [3, 10] [%] | Emax [3, 11] [%] | HIT−CALL ([3]; tcpl plot AEID3093, COFF 20.3) | HIT−CALL ([4]; tcpl plot AEID3096, COFF 0.774) | MAX_MEAN [4, 12] [Percent Activity] | MAX_MED [4, 13] [Percent Activity] | MAX_MEAN [5, 14] [Percent Activity] | MAX_MED [5, 15] [Percent Activity] | Emax ([1]; read-out: tp (winning model)) [%] | Cell Count ACC ([2]; human, 48 h) [µM] | Classification [6] | AC50 [5] [µM] | other results |
| --- | --- | --- | --- | --- | --- | --- | --- | --- | --- | --- | --- | --- | --- | --- | --- | --- | --- | --- | --- | --- | --- |
| OCCO [Ethylene Glycol] | 0 | – | – | – | – | – | – | – | – | – | – | – | – | – | – | – | – | – | – | – | DevTox % Max Inhibition [1]: 6.931%; DevTox ACC [1]: >200 µM; HIT−CALL [1]: 0; Hit Call [1]: Negative; MAX_MEAN [1]: 6.33; MAX_MED [1]: 6.93; hit call designation (in words) [1]: false negative; maximum observed effect level class (% max inhibition) [1]: weak (key: high (80–100% max inhibition); moderate (20–80% max inhibition); weak (0–20% max inhibition)); Cell Count % Max Inhibition [2]: 7.044%; Cell Count ACC [2]: >200 µM; HIT−CALL [3]: 0; MAX_MEAN [3]: 15.9; MAX_MED [3]: 16.8; HIT−CALL [4]: 0; MAX_MEAN [4]: 0.895; MAX_MED [4]: 0.908; MAX_MEAN [5]: 1.02; MAX_MED [5]: 0.539 |
| COC(=O)c1ccccc1C(=O)OC [Dimethyl Phthalate] | 0 | 6.7 | 7.41 | 6.7 | Negative | >200 | 0 | 11.9 | 6.35 | 7.43 | 0 | 0 | 0.821 | 0.835 | 1.15 | 0.556 | – | – | – | – | Cell Count ACC ([2]; Table S2, 48 h exposure): >200 µM |
| CC1=C(/C=C/C(C)=C/C=C/C(C)=C/CO)C(C)(C)CCC1 [Retinol] | – | 94.5 | 94.3 | 94.5 | Positive | 13.0451 | 1 | 97.3 | 1.1 | 1.06 | 0 | – | – | – | 23.5 | 25.3 | 117 | 12.6287 | Non-Teratogen | 46.8 | hit call designation (in words) [1, 16]: false positive; AC50 ([1]; read-out: ga (winning model), tcpl plot AEID3094, gain parameter of winning curve fit (log concentration, µM axis), hit calls only (converted)): 33.9 µM; Emax [1, 17]: 80 to 100%; DevTox-GLR Endo ACC ([1]; 48 h exposure): 13.05 µM; DevTox-GLR Endo CC ([2]; human, 48 h): 12.63 µM; Development Toxicant Classification [6]: Negative; DT Class. [6]: Neg; Emax [5]: 26% |
| C=CC(N)=O [Acrylamide] | – | – | – | – | Negative | >200 | 0 | – | – | – | 0 | 1 | 1.03 | 1.06 | 0.47 | 0.417 | – | – | – | – | DevTox % Max Inhibition [1, 18]: 9.423%; MAX_MEAN [1, 19]: 8.79 Percent Activity; MAX_MED [1, 20]: 9.42 Percent Activity; Cell Count % Max Inhibition [2, 21]: 16.9643%; MAX_MEAN [3, 22]: 6.64 Percent Activity; MAX_MED [3, 23]: 7.31 Percent Activity; ga (winning model) [4]: −6.98; tp (winning model) [4]: 0.908 |
| D-Camphor | 0 | – | – | – | Negative | >200 | 0 | – | – | – | 0 | 1 | 0.906 | 0.891 | 0.902 | 0.451 | – | – | – | – | DevTox % Max Inhibition [1, 18]: 9.33%; MAX_MEAN [1, 19]: 8.81 Percent Activity; MAX_MED [1, 20]: 9.33 Percent Activity; Cell Count % Max Inhibition [2, 21]: 7.562%; MAX_MEAN [3, 22]: 7.36 Percent Activity; MAX_MED [3, 23]: 11.6 Percent Activity; ga (winning model) [4]: −7; tp (winning model) [4]: 0.81 |
| CC(=O)Nc1ccc(O)cc1 [Acetaminophen] | – | 10.5 | 11.3 | 10.5 | Negative | >200 | 0 | 13.1 | 11.3 | 10.3 | 0 | 0 | 0.829 | 0.865 | 0.992 | 0.603 | – | >200 | – | – | effect on SOX17-positive cells (in words) ([1]; 48 h exposure during directed endoderm differentiation): no observed effect |
| Cc1ccc(NC(=O)c2ccc(CN3CCN(C)CC3)cc2)cc1Nc1nccc(-c2cccnc2)n1 [Imatinib] | – | 101 | 101 | 101 | Positive | – | 1 | 97.8 | 7.83 | 8.88 | 0 | – | – | – | 6.74 | 6.89 | 101 | 9.465 | – | 14.1 | Emax [5]: 6.56% |
| Oc1cc(O)c2c(c1)OC(c1ccc(O)c(O)c1)C(O)C2 (stereo not shown) [Cianidanol (Catechin)] | – | – | – | – | – | – | – | – | – | – | – | – | – | – | – | – | – | – | Non-Teratogen | – | – |
| CCCCOC(=O)c1ccc(O)cc1 [Butylparaben, 4−Hydroxybenzoic acid butyl ester] | – | 102 | 101 | 102 | Positive | 34.4685 | 1 | 91.8 | 8.67 | 10.2 | 0 | – | – | – | 4.14 | 4.42 | 102 | – | Non-Teratogen | 115 | hit call designation (in words) [1, 16]: false positive; AC50 ([1]; read-out: ga (winning model)): 50.1 µM; Emax [1, 17]: 80 to 100%; DevTox-GLR Endo ACC ([1]; 48 h exposure): 34.47 µM; Development Toxicant Classification [6]: Negative; DT Class. [6]: Neg; Emax [5]: 6.25% |
| NC(=O)c1ccc(-c2nc(-c3ccc4c(c3)OCO4)c(-c3ccccn3)[nH]2)cc1 [SB431542] | – | – | – | – | – | – | – | – | – | – | – | – | – | – | – | – | – | – | – | – | effect on SOX2 and SOX17 expression (in words) ([1]; 1 µM positive control, 48 h endoderm induction): loss of both SOX2 and SOX17 |
